The values that follow come from ChEMBL document CHEMBL6074715, “Discovery of pyridine-based derivatives as FLT3 inhibitors for the treatment of acute myeloid leukemia” (Eur J Med Chem, 2025).

This data set is described as follows: Toxicity in female NSG mouse assessed as effect on kidney at 20 to 40 mg/kg, po measured after 21 days by H and E staining based analysis. In kind it is organism-based. As to conditions: in vivo, 504 h, dose 20-40 mg/kg, time 21 day.

In the case of `O=C(Nc1ccc(Oc2ccnc(NC(=O)N3CC(O)C3)c2)c(F)c1)c1cn(-c2cccnc2)nn1`, the Activity result is “Non-toxic”.
